Columns and labels:
Staphylococcus aureus = experiment: Comparative in vitro examination of selected pathogens, zone diameter; format: cell-based; settings: (Müller)Hinton-Agar; amount used: The novel compound 0.05 mL; Cephalosporin 0.1 mL; Ampicillin 0.2 mL
Escherichia coli 0157H5 = experiment: as above; format: cell-based; settings: (Müller)Hinton-Agar; amount used: The novel compound 0.05 mL; Cephalosporin 0.1 mL; Ampicillin 0.2 mL
[1] = tested on: Salmonella typhimurium DT104; experiment: as above; format: cell-based; settings: (Müller)Hinton-Agar; amount used: The novel compound 0.05 mL; Cephalosporin 0.1 mL; Ampicillin 0.2 mL
Streptococcus pneumonia = experiment: as above; format: cell-based; settings: (Müller)Hinton-Agar; amount used: The novel compound 0.05 mL; Cephalosporin 0.1 mL; Ampicillin 0.2 mL
Streptococcus pyogenes = experiment: as above; format: cell-based; settings: (Müller)Hinton-Agar; amount used: The novel compound 0.05 mL; Cephalosporin 0.1 mL; Ampicillin 0.2 mL
Streptococcus uberis = experiment: as above; format: cell-based; settings: (Müller)Hinton-Agar; amount used: The novel compound 0.05 mL; Cephalosporin 0.1 mL; Ampicillin 0.2 mL
Listeria monocytogenes = experiment: as above; format: cell-based; settings: (Müller)Hinton-Agar; amount used: The novel compound 0.05 mL; Cephalosporin 0.1 mL; Ampicillin 0.2 mL
E. coli = experiment: as above; format: cell-based; settings: (Müller)Hinton-Agar; amount used: The novel compound 0.05 mL; Cephalosporin 0.1 mL; Ampicillin 0.2 mL
Salmonella = experiment: as above; format: cell-based; settings: (Müller)Hinton-Agar; amount used: The novel compound 0.05 mL; Cephalosporin 0.1 mL; Ampicillin 0.2 mL
Campylobacter = experiment: as above; format: cell-based; settings: (Müller)Hinton-Agar; amount used: The novel compound 0.05 mL; Cephalosporin 0.1 mL; Ampicillin 0.2 mL
Shigella = experiment: as above; format: cell-based; settings: (Müller)Hinton-Agar; amount used: The novel compound 0.05 mL; Cephalosporin 0.1 mL; Ampicillin 0.2 mL
Vibrio = experiment: as above; format: cell-based; settings: (Müller)Hinton-Agar; amount used: The novel compound 0.05 mL; Cephalosporin 0.1 mL; Ampicillin 0.2 mL
Yersinia = format: cell-based; settings: (Müller)Hinton-Agar; amount used: The novel compound 0.05 mL; Cephalosporin 0.1 mL; Ampicillin 0.2 mL
Listeria = experiment: Comparative in vitro examination of selected pathogens, zone diameter; format: cell-based; settings: (Müller)Hinton-Agar; amount used: The novel compound 0.05 mL; Cephalosporin 0.1 mL; Ampicillin 0.2 mL
humans = experiment: Clinical pilot study for side effects of the compound tablets; format: in vivo; settings: 60 humans; 250 mg / 30 kg of the body weight every 12 hours for seven (7) days
Experimental: The reason for this testing was to check if the compound tablets, after a longer period of use, can cause any eventual side effects.
The test results were generated and monitored to obtain the relevant information and facts. In this study, the general monitored parameters were pulse, breathing, ECG (Electrocardiography), any discomfort, adverse events and/or allergy monitoring. These parameters were measured before the treatment with the compound and 15 minutes after its intake. The compound was ingested on the therapeutic days in each patient at 8.00 AM and 8.00 PM CET (paragraph [0026] and paragraph [0027]). After The compound had been consumed, the physician made observations for 30 min. Feeling of the patients during and after the intake of the compound will also be recorded for each participant.
As part of the biochemical analysis of patients' blood, the blood sample of each patient was checked for biochemical parameters. Blood samples were taken from each patient before the beginning of the test, on the 4th day from the tests beginning, and on the 8th day form the tests beginning. The last blood samples have to be checked 12 hours from the last intake of the compound. The biochemical parameters that were measured in blood samples include: • 1. Liver status • 2. C Reactive protein • 3. Kidney Status
The dose was: 250 mg of the compound / 30 kg of the body weight every 12 hours for seven (7) days (paragraph [0026] and paragraph [0027]).
The clinical study started on November 5th, 2019, and was completed on November 29th, 2019.

[2] = tested on: Salmonella strain which requires histidine; experiment: Ames test (mutagenic and carcinogenic effect); format: cell-based
Description: (The subject of the testing was to determine the mutagenic and carcinogenic effect of the compound in tablet form). The test has been done by the Ames test. This test which is a widely and often used method that use pathogens in most cases bacteria's in order to test whether a given chemical, compound and/or medicine can cause any damage to the DNA of the test organism. This method is fast to conduct and easy to follow to check mutagenic or carcinogenic effect of the tested compound. In the lab dish with a the specially selected Salmonella strain which requires histidine, was added to a rat liver extract. The test has been done using the control-experimental method. In the dish volume of the 20 mL of liquid considered to be a control one, had no the compound in it. Into the dish we consider to be experimental one with also a volume of 20 mL, we added 2 mL of the compound, partly diluted into a glucose injectable solution. The mutagenic test results were negative in both lab dishes - control and experimental plates. The results were identical with no signs of the mutations.

[3] = tested on: mammalian cells, mitotic division; experiment: Pilot test of effect on mitotic cell division; format: cell-based; settings: the compound in tablet form
Description: In the pilot test at the same Institute, the effect of the compound on the mammalian cells, mitotic division has also been tested. It has been investigated if the compound in tablet form will have any negative - suppressive effect on the mitotic cells division. […] It is a positive sign that the compound in tablet form might be used for on pregnant mammals, without danger of the teratogenic effect on the fetus in the wombs, by the pregnant mammals.

bacteria = experiment: In vitro studies of bactericide effect; format: cell-based; settings: compared with Thymol and Carvacrol
Description: Their physiological activity is well known. […] The phenol groups of both Thymol and Carvacrol are very aggressive to pathogens: bacteria, fungi etc. These groups are needed for bioactivity of our product. What has been done was making the phenol group less reactive by reacting them with carboxylic and amino group of glycine. The product should be administered p.o. (per os). The novelty idea was to hydrolyze a part of the new molecule in the stomach by hydrochloric acid. Carvacrol and an ester of Glycine and Thymol will be slowly hydrolyzed into Thymol and Glycine. […] The subject of this invention is to produce a potent entero-antiseptic for the treatment gastrointestinal infections in humans.

mice [4] = experiment: Acute toxicity LD50, oral (p.o.), mice; settings: oral dose 2,000 mg/kg
rats [5] = experiment: Acute toxicity LD50, oral (p.o.), rats; settings: oral dose 2,500 mg/kg
mice [6] = experiment: Acute toxicity LD50, parenteral - intraperitoneal (i.p.), mice; settings: mouse, in vivo
rats [7] = experiment: Acute toxicity LD50, parenteral - intraperitoneal (i.p.), rats; settings: i.p. dose 2,500 mg/kg
rats [8] = settings: oral (p.o.), Carvacrol 99,5% concentration, reference value; cited from earlier work
[9] = phenol group of Carvacrol; cited from earlier work

Compound: 2-(2-isopropyl-5-methylphenoxy)-2-oxoethan-1-aminium 2-isopropyl-5-methylphenolate [The novel compound]
- R (evaluation of the results by zone diameter) (Staphylococcus aureus): E S
- zone diameter (Staphylococcus aureus): 32 mm
- R (evaluation of the results by zone diameter) (Escherichia coli 0157H5): E S
- zone diameter (Escherichia coli 0157H5): 29 mm
- R (evaluation of the results by zone diameter) [1]: E S
- zone diameter [1]: 30 mm
- R (evaluation of the results by zone diameter) (Streptococcus pneumonia): E S
- zone diameter (Streptococcus pneumonia): 36 mm
- R (evaluation of the results by zone diameter) (Streptococcus pyogenes): E S
- zone diameter (Streptococcus pyogenes): 34 mm
- R (evaluation of the results by zone diameter) (Streptococcus uberis): E S
- zone diameter (Streptococcus uberis): 37 mm
- R (evaluation of the results by zone diameter) (Listeria monocytogenes): E S
- zone diameter (Listeria monocytogenes): 38 mm
- R (evaluation of the results by zone diameter) (E. coli): E S
- zone diameter (E. coli): 32 mm
- R (evaluation of the results by zone diameter) (Salmonella): E S
- zone diameter (Salmonella): 34 mm
- R (evaluation of the results by zone diameter) (Campylobacter): E S
- zone diameter (Campylobacter): 35 mm
- R (evaluation of the results by zone diameter) (Shigella): E S
- zone diameter (Shigella): 31 mm
- R (evaluation of the results by zone diameter) (Vibrio): E S
- zone diameter (Vibrio): 33 mm
- R (evaluation of the results by zone diameter) (Yersinia): E S
- zone diameter (Yersinia): 30 mm
- R (evaluation of the results by zone diameter) (Listeria): E S
- zone diameter (Listeria): 32 mm
- C Reactive Protein (CRP) measurements (humans): no inflammation was developed
- Electrocardiography measurements (humans): regular without any pathological and irregular oscillations
- kidney functions (urine and blood parameters) (humans): No irregular parameters were reported
- liver function biochemical analysis from blood samples (humans): No irregular parameters were reported
- pulse frequency and blood pressure (humans): not significantly altered
- respiratory function (humans): not disturbed
- symptoms of allergy (humans): no symptoms of allergy
- tolerance to the compound upon the prescribed dosage (humans): showed tolerance
- mutagenic test results ([2]; Ames test, rat liver extract, 2 mL of the compound, partly diluted into a glucose injectable solution, in 20 mL dish, preliminary result): negative
- carcinogenic effect ([2]; suggested from the negative Ames test result, the compound in tablet form): no carcinogenic effect
- negative - suppressive effect on the mitotic cells division [3]: no negative effects
- bactericide effect (bacteria): more effective and faster bactericide effect than existing Thymol and Carvacrol
- mice out of a hundred (100) that changed their behavior and demonstrated light discomfort (mice [4]): 21
- rats out of a hundred (100) that changed their behavior and demonstrated light discomfort (rats [5]): 37
- mice out of a hundred (100) that changed their behavior and demonstrated discomfort (mice [6]): 27
- time after which discomfort symptoms disappeared (mice [6]): 3 to 5 min
- rats out of a hundred (100) that changed their behavior and demonstrated discomfort (rats [7]): 35

Compound: CC1(C)S[C@@H]2[C@H](NC(=O)[C@H](N)c3ccccc3)C(=O)N2[C@H]1C(=O)O [Ampicillin]
- R (evaluation of the results by zone diameter) (Staphylococcus aureus): R (0mm - 4mm: resistant: R)
- zone diameter (Staphylococcus aureus): 0 mm
- R (evaluation of the results by zone diameter) (Escherichia coli 0157H5): M S
- zone diameter (Escherichia coli 0157H5): 7 mm
- R (evaluation of the results by zone diameter) [1]: M S
- zone diameter [1]: 6 mm
- R (evaluation of the results by zone diameter) (Streptococcus pneumonia): R (0mm - 4mm: resistant: R)
- zone diameter (Streptococcus pneumonia): 0 mm
- R (evaluation of the results by zone diameter) (Streptococcus pyogenes): R (0mm - 4mm: resistant: R)
- zone diameter (Streptococcus pyogenes): 3 mm
- R (evaluation of the results by zone diameter) (Streptococcus uberis): R (0mm - 4mm: resistant: R)
- zone diameter (Streptococcus uberis): 0 mm
- R (evaluation of the results by zone diameter) (Listeria monocytogenes): M S
- zone diameter (Listeria monocytogenes): 5 mm
- R (evaluation of the results by zone diameter) (E. coli): R (0mm - 4mm: resistant: R)
- zone diameter (E. coli): 2 mm
- R (evaluation of the results by zone diameter) (Salmonella): M S
- zone diameter (Salmonella): 8 mm
- R (evaluation of the results by zone diameter) (Campylobacter): R (0mm - 4mm: resistant: R)
- zone diameter (Campylobacter): 0 mm
- R (evaluation of the results by zone diameter) (Shigella): M S
- zone diameter (Shigella): 6 mm
- R (evaluation of the results by zone diameter) (Vibrio): R (0mm - 4mm: resistant: R)
- zone diameter (Vibrio): 4 mm
- R (evaluation of the results by zone diameter) (Yersinia): R (0mm - 4mm: resistant: R)
- zone diameter (Yersinia): 1 mm
- R (evaluation of the results by zone diameter) (Listeria): R (0mm - 4mm: resistant: R)
- zone diameter (Listeria): 2 mm

Compound: Cc1ccc(C(C)C)cc1O [Carvacrol]
- LD50 (rats [8]): 810 mg/kg
- pKa [9]: 10.4

From patent EP3991725B1, “NOVEL ENTERO-ANTISEPTIC FOR THE TREATMENT OF GASTROINTENSTINAL INFECTIONS IN HUMANS” (Ninkov, Dusan, priority 2020, dated 2022)
